Reference: patent US8071786B2, “Indole compounds useful as serotonin selective agents” (Galenea Corp., priority 2005, dated 2011)
Marks after values point to notes of the source that are not given here.

What was measured:
[1] = tested on: itch-associated scratching induced by serotonin; assay: Animal model for OCD: serotonin-induced scratching; type: in vivo, male Swiss-Webster mice; settings: for Number of Scratches as Percentage of Control: inducer Serotonin
Experimental: (§1) The 5-HT action is at least partly mediated by 5-HT2 receptors in the skin, as shown by blocking with specific antagonists (Yamaguchi, T., Nagasawa, T., Satoh, M., Kuraishi, Y. “Itch-associated Response Induced by Intradermal Serotonin Through 5-HT2 Receptors in Mice” Neurosci. Res. 1999, 35, 77). The effect of test compounds on itch-associated scratching in the mice may indicate their action on 5-HT receptors, and a study was carried out as an animal model for OCD. The subjects were male Swiss-Webster mice, 4-6 weeks old, weighing 25-45 g. Mice were housed 5 per cage, given free access to standard mouse food and water except during experiments, and maintained in a temperature-controlled room (70° F.). Serotonin and all test drugs were made up with ascorbic acid to protect against oxidation. Two mice, one a control, the other experimental, were tested each time. Each mouse was separately placed into a plexiglas box.
(§2) Mice were injected subcutaneously between the shoulder blades with either 0.1 ml of serotonin, 0.4 mg per ml in 0.15 M saline plus ascorbic acid, 1 mg/ml, or compound 48-80 (the copolymer product of N-methyl-p-methoxyphenethylamine with formaldehyde), 1.0 mg/ml in saline plus ascorbic acid. Test compounds were injected i.p. 5 minutes before the inducer. The cumulative number of scratches with a hind leg was recorded at 5 minute intervals for 30 minutes. One saline injected control and one test animal were tested together in each assay.

[2] = biological target: T1, 5-HT2B (Homo sapiens, UniProt P41595); assay: Receptor binding, competition binding assay
T1 sequence (P41595 whole entry): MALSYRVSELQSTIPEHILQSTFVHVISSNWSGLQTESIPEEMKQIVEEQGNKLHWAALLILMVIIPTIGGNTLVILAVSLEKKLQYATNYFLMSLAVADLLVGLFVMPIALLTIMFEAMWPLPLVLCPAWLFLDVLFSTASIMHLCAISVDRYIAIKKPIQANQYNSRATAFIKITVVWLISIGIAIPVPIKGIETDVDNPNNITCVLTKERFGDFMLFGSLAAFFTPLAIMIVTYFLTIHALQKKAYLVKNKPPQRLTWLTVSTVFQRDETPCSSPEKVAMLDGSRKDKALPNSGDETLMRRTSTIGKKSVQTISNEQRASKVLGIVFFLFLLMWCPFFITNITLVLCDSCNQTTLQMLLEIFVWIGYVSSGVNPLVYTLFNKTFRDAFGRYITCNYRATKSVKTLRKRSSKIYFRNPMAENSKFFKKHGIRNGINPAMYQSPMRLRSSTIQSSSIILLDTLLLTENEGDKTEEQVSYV
Experimental: (§3) For initial screens, a 10 micromolar concentration of each compound (dissolved in 10% DMSO) was incubated with the appropriate receptor preparation and percent inhibition determined for duplicate determinations each performed in duplicate. Where >50% inhibition of specific binding was measured, Ki determinations were then measured by competition binding assays in which concentrations from 1 to 100,000 nM were incubated in duplicate. For each Ki value the data represent the mean+/−SD of computer-derived estimates for N=4 separate determinations, as described (Rothman, R., Baumann, M., Savage, J., Rauser, L., McBride, A., Hufeisen, S., Roth, B. L. “Evidence for Possible Involvement of 5-HT2B Receptors in the Cardiac Valvulopathy Associated with Fenfluramine and other Serotonergic Medications” Circulation 2000, 102, 2836; Roth, B. L., Shoham, M., Choudhary, M., Khan, N. “Identification of Conserved Aromatic Residues Essential for Agonist Binding and Second Messenger Production at 5-Hydroxytryptamine 2A Receptors” Mol. Pharmacol. 1997, 52, 259; Roth, B. L., Choudhary, M., Khan, N., Uluer, A. “High-affinity Agonist Binding is not Sufficient for Agonist Efficacy at 5-Hydroxytryptamine 2A Receptors: Evidence in Favor of a Modified Ternary Complex Model” J. Pharmacol. Exp. Ther. 1997, 280, 576).
(§4) Receptor binding (Ki) in nM. When the standard deviation is given N≧3.

[3] = biological target: T2, 5-HT2A (Homo sapiens, UniProt P28223); assay: Receptor binding, competition binding assay
T2 sequence (P28223 whole entry): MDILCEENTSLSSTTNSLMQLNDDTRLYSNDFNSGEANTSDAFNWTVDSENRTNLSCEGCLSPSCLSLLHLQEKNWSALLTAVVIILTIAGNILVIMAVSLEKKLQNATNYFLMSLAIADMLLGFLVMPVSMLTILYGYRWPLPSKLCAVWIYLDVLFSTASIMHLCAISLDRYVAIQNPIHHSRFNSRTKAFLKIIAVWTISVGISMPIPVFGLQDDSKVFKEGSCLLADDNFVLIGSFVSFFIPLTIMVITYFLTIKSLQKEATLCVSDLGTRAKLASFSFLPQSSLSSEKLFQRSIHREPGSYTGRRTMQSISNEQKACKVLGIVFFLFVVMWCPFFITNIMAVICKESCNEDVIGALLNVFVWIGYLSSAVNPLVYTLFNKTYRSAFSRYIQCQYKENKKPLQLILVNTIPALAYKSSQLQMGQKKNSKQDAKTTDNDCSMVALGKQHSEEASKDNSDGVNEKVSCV
Experimental: as §3, §4

[4] = biological target: T3, 5-HT2C (Homo sapiens, UniProt P28335); assay: Receptor binding, competition binding assay
T3 sequence (P28335 33-458): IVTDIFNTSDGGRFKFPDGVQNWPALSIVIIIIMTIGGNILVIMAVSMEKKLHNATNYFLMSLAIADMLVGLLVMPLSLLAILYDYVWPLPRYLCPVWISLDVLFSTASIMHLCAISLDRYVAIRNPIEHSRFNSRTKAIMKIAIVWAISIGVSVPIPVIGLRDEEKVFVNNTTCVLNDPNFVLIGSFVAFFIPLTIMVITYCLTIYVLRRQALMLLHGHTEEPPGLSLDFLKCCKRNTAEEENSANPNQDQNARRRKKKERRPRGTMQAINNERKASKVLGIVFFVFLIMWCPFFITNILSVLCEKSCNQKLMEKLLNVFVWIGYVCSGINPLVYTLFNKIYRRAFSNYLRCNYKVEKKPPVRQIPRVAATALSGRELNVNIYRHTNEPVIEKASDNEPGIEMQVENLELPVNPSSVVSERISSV
Experimental: as §3, §4

[5] = biological target: T1, 5-HT2B; assay: Phosphoinositide hydrolysis functional assay; type: cell-based; design: expressed in transfected cells; settings: for EC50: activation of phosphoinositide hydrolysis, transiently expressed receptor
Experimental: (§5) Phosphoinositide hydrolysis assays were performed with stably (5-HT2A, 5-HT2C) or transiently (5-HT2B) expressed receptors plated in 24-well culture plates. Transfected cells were loaded with […] overnight in inositol-free DMEM without serum. The next day, phosphate accumulation assays were performed in a modified Krebs-bicarbonate buffer. Kact (nmol/L) and percent Vmax (relative to 5-HT) values were calculated (Roth, B. L., Shoham, M., Choudhary, M., Khan, N. “Identification of Conserved Aromatic Residues Essential for Agonist Binding and Second Messenger Production at 5-Hydroxytryptamine 2A Receptors” Mol. Pharmacol. 1997, 52, 259; Roth, B. L., Choudhary, M., Khan, N., Uluer, A. “High-affinity Agonist Binding is not Sufficient for Agonist Efficacy at 5-Hydroxytryptamine 2A Receptors: Evidence in Favor of a Modified Ternary Complex Model” J. Pharmacol. Exp. Ther. 1997, 280, 576).
(§6) Functional Assay (EC50) in nM. Data represent mean EC50 values for activation of phospho-inositide hydrolysis in cells expressing human 5-HT2A, 5-HT2B or 5-HT2C-INI receptors, relative to serotonin at 100%. When the standard deviation is given, N≧3.

[6] = biological target: T2, 5-HT2A; assay: Phosphoinositide hydrolysis functional assay; type: cell-based; design: expressed in transfected cells; settings: for EC50: activation of phosphoinositide hydrolysis, stably expressed receptor; for percent Vmax relative to serotonin at 100%, 5-HT2A: value in brackets
Experimental: as §5, §6

[7] = Appetite suppression in mice, acute assay (food consumption); type: in vivo; settings: for Mean food consumption 60 min. after injection: g (±SEM) Compound / Mean food consumption 90 min. after injection: g (±SEM) Compound: mice deprived of food 18 hours
Experimental: Mice were deprived of food, but not water, for 18 hours. They were then injected i.p. with test compounds dissolved in 0.9% NaCl containing 1 mg per ml ascorbic acid for protection against oxidation. Each mouse was placed in an individual cage for 30 minutes and then presented with a small petri dish containing a gel made from gelatin, powdered milk and sucrose. The dish was weighed at zero time and at 15-minute intervals for the next hour in order to quantitate food consumption. Controls were injected with saline-ascorbic acid; ±fenfluramine was used as an active control. Control consumption generally ranged from 1.5 to 2.0 grams.

[8] = biological target: T4, human 5-HT2C-INI (Homo sapiens, UniProt P28335); assay: Phosphoinositide hydrolysis functional assay; type: cell-based; settings: for EC50: activation of phosphoinositide hydrolysis, stably expressed receptor; for Emax: value in brackets, read-out: percent Vmax relative to serotonin at 100%, 5-HT2C (converted)
T4 construct: expressed in transfected cells
T4 sequence (P28335 33-458): T3 sequence (P28335 33-458)
Experimental: as §5, §6

[9] = tested on: itch-associated scratching induced by compound 48-80; assay: Animal model for OCD: compound 48-80-induced scratching; type: in vivo, male Swiss-Webster mice
Experimental: as §1
as §2, with “One saline injected control and one test animal were tested together in each assay.” left out

[10] = Appetite suppression in mice, chronic assay (body weight); type: in vivo
Experimental: Mice were injected i.p. at intervals of 2 or 3 days and weighed repeatedly (6 or 7 total injections). Controls were injected with saline. Weighing and injection were carried out between 11 AM and 1 PM.

[11] = biological target: T3, 5-HT2C; settings: background, literature; cited from earlier work
[12] = 5 mg/kg i.p. 5 minutes before inducer Serotonin
[13] = 20 mg/kg i.p. at intervals of 2 or 3 days
[14] = 30 mg/kg i.p. at intervals of 2 or 3 days

| SMILES | Average Number of Scratches 30 min. after injection [1, 12] | Number of Scratches as Percentage of Control ([1]; 5 mg/kg i.p.) | Ki [2] | Ki [3] | Ki [4] | melting point | EC50 [5] | EC50 [6] | percent Vmax relative to serotonin at 100%, 5-HT2A [6] | % of Control (food consumption 60 min. after injection) ([7]; 10 mg/kg i.p.) | % of Control (food consumption 90 min. after injection) ([7]; 10 mg/kg i.p.) | Mean food consumption 60 min. after injection: g (±SEM) Compound ([7]; 10 mg/kg i.p.) | Mean food consumption 90 min. after injection: g (±SEM) Compound ([7]; 10 mg/kg i.p.) | % of Control (food consumption 60 min. after injection) ([7]; 20 mg/kg i.p.) | % of Control (food consumption 90 min. after injection) ([7]; 20 mg/kg i.p.) | Mean food consumption 60 min. after injection: g (±SEM) Compound ([7]; 20 mg/kg i.p.) | Mean food consumption 90 min. after injection: g (±SEM) Compound ([7]; 20 mg/kg i.p.) | % of Control (food consumption 60 min. after injection) ([7]; 30 mg/kg i.p.) | EC50 [8] | Emax [8] | also measured |
| --- | --- | --- | --- | --- | --- | --- | --- | --- | --- | --- | --- | --- | --- | --- | --- | --- | --- | --- | --- | --- | --- |
| CN(C)CCc1cn(C)c2c(F)ccc(O)c12 [Compound O-3804, 3-(2-Dimethylaminoethyl)-7-fluoro-1-methyl-1H-indol-4-ol] | 128.4 | 34.2% | 3.64 nM | 68.2 nM | 25.4 nM | 134 to 138 °C | 35.4 ± 1.31 nM | 129 ± 1.44 nM | (125.4% ± 6.225%) | 114% | 96% | 1.3 (.14) g | 1.76 (.15) g | 99% | 107% | 1.48 (.19) g | 1.86 (.20) g | 56% | 0.517 nM | 89.9% | Average Number of Scratches 30 min. after injection ([1]; 20 mg/kg i.p. 5 minutes before inducer Serotonin): 12.8*; Number of Scratches as Percentage of Control ([1]; 20 mg/kg i.p.): 2.2%; percent Vmax relative to serotonin at 100%, 5-HT2B ([5]; value in brackets): (7.0 ± 0.92%); % of Control (food consumption 90 min. after injection) ([7]; 30 mg/kg i.p.): 77%; Mean food consumption 60 min. after injection: g (±SEM) Compound ([7]; 30 mg/kg i.p.): 0.79 (.09)* g; Mean food consumption 90 min. after injection: g (±SEM) Compound ([7]; 30 mg/kg i.p.): 1.37 (.11) g |
| CCn1cc(CCN(C)C)c2c(O)ccc(F)c21 [Compound O-3943, 3-(2-Dimethylaminoethyl)-7-fluoro-1-ethyl-1H-indol-4-ol] |  |  | 2.5 ± 0.84 nM | 97 ± 35 nM | 9.1 ± 3.99 nM | 114 to 120 °C | > 10000 nM | 12.9 nM |  |  |  |  |  |  |  |  |  |  | 5.4 ± 2.5 nM | 100% |  |
| CN(C)CCc1cn(C)c2c(F)ccc(OP(=O)(O)O)c12 [Compound O-3944, 3-(2-Dimethylaminoethyl)-7-fluoro-1-methyl-1H-indol-4-phosphate] | 113.4* | 20.2% |  |  |  |  |  |  |  | 74% | 75% | 0.84 (.17) g | 1.38 (.13) g | 41% | 62% | 0.56 (.10)* g | 1.05 (.14)* g | 15% |  |  | Average Number of Scratches 30 min. after injection ([1]; 2 mg/kg i.p. 5 minutes before inducer Serotonin): 231.6; Number of Scratches as Percentage of Control ([1]; 2 mg/kg i.p.): 39.3%; Average Number of Scratches 30 min. after injection ([9]; 30 mg/kg i.p. 5 minutes before inducer 48-80): 0*; Number of Scratches as Percentage of Control ([9]; 30 mg/kg i.p., inducer 48-80): 0%; Day 7 % Δ from starting weight [10, 13]: −1.75* %; Day 7 Difference within same group [10, 13]: -0.78 g; Day 14 % Δ from starting weight [10, 13]: −2.04* %; Day 14 Difference within same group [10, 13]: -0.91 g; Day 7 % Δ from starting weight [10, 14]: −3.66* %; Day 7 Difference within same group [10, 14]: -1.89 g; Day 14 % Δ from starting weight [10, 14]: −4.13* %; Day 14 Difference within same group [10, 14]: -2.13 g; % of Control (food consumption 90 min. after injection) ([7]; 30 mg/kg i.p.): 55%; Mean food consumption 60 min. after injection: g (±SEM) Compound ([7]; 30 mg/kg i.p.): 0.13 (.05)* g; Mean food consumption 90 min. after injection: g (±SEM) Compound ([7]; 30 mg/kg i.p.): 0.65 (.11)* g |
| CCCn1cc(CCN(C)C)c2c(O)ccc(F)c21 [Compound O-3952, 3-(2-Dimethylaminoethyl)-7-fluoro-1-propyl-1H-indol-4-ol] |  |  | 2.79 ± 0.31 nM | 492 ± 79.3 nM | 10.5 ± 2.39 nM | 75 to 79 °C | > 10000 nM | 1280 nM | 103% +/− 7 |  |  |  |  |  |  |  |  |  | 11 ± 4 nM | 89% |  |
| CN(C)CCc1cn(CCF)c2c(F)ccc(O)c12 [Compound O-3975, 3-(2-Dimethylaminoethyl)-7-fluoro-1-(2-fluoroethyl)-1H-indol-4-ol] |  |  | 2.77 ± 0.31 nM | 308 ± 61.4 nM | 7.74 ± 0.65 nM | 97 to 101 °C | > 10000 nM | 614 nM |  |  |  |  |  |  |  |  |  |  | > 2000 nM |  |  |
| C[C@H](N)Cn1ccc2cc(F)c(Cl)cc21 [Ro 60-0175] |  |  |  |  |  |  |  |  |  |  |  |  |  |  |  |  |  |  |  |  | times more active at 5-HT2C as compared to 5-HT2A [11]: 25 times |
